From ChEMBL document CHEMBL3102731, “Structure-activity relationship studies and biological characterization of human NAD(+)-dependent 15-hydroxyprostaglandin dehydrogenase inhibitors” (Bioorg Med Chem Lett, 2014)
Values belong to the molecule of their own block, whether it stands above or below them.

What was measured:
[1] = Passive permeability of the compound at pH 7.4 by PAMPA; format: ADME
[2] = Kinetic solubility of the compound in PBS buffer at pH 7.4; format: physicochemical
LNCaP [3] = test: Induction of PGE2 production in human LNCAP cells assessed as half-maximal activation concentration after 16 hrs by HTRF assay; format: functional, cell-based
A549 [4] = test: Induction of PGE2 production in human A549 cells at 775 pM to 45.8 uM after 4 to 20 hrs by HTRF assay relative to control; format: functional
A549 [5] = test: Induction of PGE2 production in human A549 cells assessed as concentration required for half-maximal activation after 4 to 20 hrs by HTRF assay; format: functional, cell-based
[6] = molecular target: T1, 15-hydroxyprostaglandin dehydrogenase [NAD(+)] (Homo sapiens, UniProt P15428); test: Inhibition of human HPGD using PGE2 as substrate after 15 mins by fluorescence assay
T1 sequence (P15428 whole entry): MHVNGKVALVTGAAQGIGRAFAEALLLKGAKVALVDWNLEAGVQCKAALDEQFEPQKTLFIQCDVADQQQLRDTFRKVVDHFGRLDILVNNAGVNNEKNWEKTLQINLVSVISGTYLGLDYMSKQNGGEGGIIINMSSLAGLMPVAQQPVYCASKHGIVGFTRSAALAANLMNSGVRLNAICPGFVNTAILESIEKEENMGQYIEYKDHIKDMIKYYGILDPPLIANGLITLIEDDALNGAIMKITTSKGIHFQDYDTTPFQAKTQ

Liver microsome = test: Half life in rat liver microsomes in presence of NADPH; format: ADME
LNCaP [7] = test: Induction of PGE2 production in human LNCAP cells at 41.9 nM to 100 uM after 16 hrs by HTRF assay relative to control; format: functional
[8] = molecular target: T2, Peroxisomal multifunctional enzyme type 2 (Homo sapiens, UniProt P51659); test: Inhibition of HSD17beta4 (unknown origin) using NAD+/estradiol as substrate at 324 pM to 57.2 uM after 15 mins by UV-fluorescence assay
T2 sequence (P51659 whole entry): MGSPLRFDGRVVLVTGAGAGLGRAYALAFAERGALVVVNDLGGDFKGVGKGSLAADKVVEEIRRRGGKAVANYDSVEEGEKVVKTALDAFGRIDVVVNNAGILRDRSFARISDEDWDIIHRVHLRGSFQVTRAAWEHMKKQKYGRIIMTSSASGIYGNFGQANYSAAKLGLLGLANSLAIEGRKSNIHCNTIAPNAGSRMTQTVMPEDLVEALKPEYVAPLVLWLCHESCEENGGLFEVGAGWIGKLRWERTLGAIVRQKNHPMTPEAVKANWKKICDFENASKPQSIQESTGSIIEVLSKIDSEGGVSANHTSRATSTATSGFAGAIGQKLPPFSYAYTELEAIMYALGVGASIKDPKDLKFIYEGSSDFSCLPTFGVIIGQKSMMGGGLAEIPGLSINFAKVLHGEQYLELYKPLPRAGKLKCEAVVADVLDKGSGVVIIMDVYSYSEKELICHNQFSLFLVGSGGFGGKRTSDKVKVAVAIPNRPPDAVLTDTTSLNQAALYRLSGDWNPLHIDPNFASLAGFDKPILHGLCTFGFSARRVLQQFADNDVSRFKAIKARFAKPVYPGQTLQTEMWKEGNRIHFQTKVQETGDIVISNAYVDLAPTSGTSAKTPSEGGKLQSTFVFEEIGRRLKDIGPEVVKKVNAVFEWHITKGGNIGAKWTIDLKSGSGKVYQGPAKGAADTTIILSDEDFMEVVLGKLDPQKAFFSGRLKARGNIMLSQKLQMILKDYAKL

[9] = molecular target: Glyceraldehyde-3-phosphate dehydrogenase (Oryctolagus cuniculus, UniProt P46406); test: Inhibition of rabbit muscle GAPDH using glyceraldehyde-3-phosphate as substrate at 324 pM to 57.2 uM by fluorescence assay
Chain of Glyceraldehyde-3-phosphate dehydrogenase (P46406 whole entry): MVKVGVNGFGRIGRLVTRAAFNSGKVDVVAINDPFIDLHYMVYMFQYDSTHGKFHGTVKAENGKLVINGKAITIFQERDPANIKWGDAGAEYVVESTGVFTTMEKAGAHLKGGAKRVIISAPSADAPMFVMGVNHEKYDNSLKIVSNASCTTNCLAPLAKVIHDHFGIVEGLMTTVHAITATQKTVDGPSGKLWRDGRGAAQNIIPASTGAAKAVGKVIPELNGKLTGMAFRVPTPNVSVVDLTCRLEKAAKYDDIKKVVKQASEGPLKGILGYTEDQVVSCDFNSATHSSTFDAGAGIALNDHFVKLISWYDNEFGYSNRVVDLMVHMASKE

[10] = molecular target: L-lactate dehydrogenase B chain (Homo sapiens, UniProt P07195); test: Inhibition of LDHB (unknown origin) using sodium pyruvate as substrate at 0.46 to 57.5 uM after 15 mins by fluorescence assay
Chain of L-lactate dehydrogenase B chain (P07195 whole entry): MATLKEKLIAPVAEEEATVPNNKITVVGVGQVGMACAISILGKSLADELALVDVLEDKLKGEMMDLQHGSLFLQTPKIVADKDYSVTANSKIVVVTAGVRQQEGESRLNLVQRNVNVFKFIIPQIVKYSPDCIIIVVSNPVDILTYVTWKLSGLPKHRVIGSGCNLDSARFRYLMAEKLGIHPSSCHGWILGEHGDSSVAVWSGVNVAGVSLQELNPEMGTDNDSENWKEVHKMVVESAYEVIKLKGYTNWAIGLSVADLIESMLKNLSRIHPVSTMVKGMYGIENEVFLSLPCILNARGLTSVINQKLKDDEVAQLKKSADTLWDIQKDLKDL

[11] = molecular target: L-lactate dehydrogenase A chain (Homo sapiens, UniProt P00338); test: Inhibition of LDHA (unknown origin) using sodium pyruvate as substrate at 0.46 to 57.5 uM after 15 mins by fluorescence assay
[12] = molecular target: T3, Aldehyde dehydrogenase 1A1 (Homo sapiens, UniProt P00352); test: Inhibition of ALDH1A1 (unknown origin) using NAD+/propionaldehyde as substrate after 15 mins by UV-fluorescence assay
T3 sequence (P00352 whole entry): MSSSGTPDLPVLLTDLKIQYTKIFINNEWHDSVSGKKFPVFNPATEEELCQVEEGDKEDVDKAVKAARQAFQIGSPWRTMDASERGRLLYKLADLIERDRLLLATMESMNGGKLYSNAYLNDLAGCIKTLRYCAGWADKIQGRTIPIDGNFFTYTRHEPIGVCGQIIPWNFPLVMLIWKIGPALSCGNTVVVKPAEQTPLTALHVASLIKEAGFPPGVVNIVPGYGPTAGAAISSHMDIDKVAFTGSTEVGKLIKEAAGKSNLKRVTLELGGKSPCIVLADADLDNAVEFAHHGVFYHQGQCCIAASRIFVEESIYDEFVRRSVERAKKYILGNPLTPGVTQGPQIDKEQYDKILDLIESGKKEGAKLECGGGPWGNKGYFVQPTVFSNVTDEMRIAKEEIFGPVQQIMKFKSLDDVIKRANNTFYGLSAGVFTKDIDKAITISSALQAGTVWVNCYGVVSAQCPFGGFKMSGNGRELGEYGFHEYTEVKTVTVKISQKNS

Compound: Cc1cccc(-n2cnc3cc(C(=O)N4CCCCC4)ccc32)c1
permeability [1]: 1200 ×10⁻⁶ cm/s | Kinetic_solubility [2]: > 47 µM | AC50 (LNCaP [3]): 0.884 µM | Activity (A549 [4]): 129% | AC50 (A549 [5]): 0.469 µM | IC50 [6]: 0.019 µM | t1/2 (Liver microsome): 7.3 min | Activity (LNCaP [7]): 62%

Compound: Cc1cc(-c2nnc3n2CCCCC3)c(C)n1-c1ccc(F)cc1
IC50 [6]: 0.121 µM

Compound: Cc1cc(-c2nnc3n2CCCCC3)c(C)n1-c1ccc([N+](=O)[O-])cc1
IC50 [6]: 0.108 µM

Compound: Cc1cc(-c2nnc3n2CCCCC3)c(C)n1-c1ccc(C(C)(C)C)cc1
IC50 [6]: 0.136 µM

Compound: Cc1cc(-c2nnc3n2CCCCC3)c(C)n1-c1ccccn1
IC50 [6]: 1.08 µM

Compound: Cc1cc(-c2nnc3n2CCCCC3)c(C)n1-c1cccnc1
IC50 [6]: 0.271 µM

Compound: Cc1cc(-c2nnc3n2CCCCC3)c(C)n1-c1ccncc1
IC50 [6]: 0.383 µM

Compound: Cc1cc(-c2nnc3n2CCCCC3)c(C)n1-c1cccc2ccccc12
IC50 [6]: 0.108 µM

Compound: Cc1cc(-c2nnc3n2CCC3)c(C)n1-c1ccccc1
IC50 [6]: 3.04 µM

Compound: Cc1cc(-c2nnc3n2CCCC3)c(C)n1-c1ccccc1
IC50 [6]: 0.192 µM

Compound: Cc1cc(-c2nnc3n2CCCCCC3)c(C)n1-c1ccccc1
IC50 [6]: 0.242 µM

Compound: Cc1cc(-c2nnc3n2CCCCCCC3)c(C)n1-c1ccccc1
IC50 [6]: 0.383 µM

Compound: c1ccc(-n2ccc(-c3nnc4n3CCCCC4)c2)cc1
IC50 [6]: 0.607 µM

Compound: c1ccc(-n2ccc(-c3nnc4n3CCCCC4)n2)cc1
IC50 [6]: 3.83 µM

Compound: c1ccc(-n2cc(-c3nnc4n3CCCCC4)c3ccccc32)cc1
IC50 [6]: 0.681 µM

Compound: Cc1cccc(-n2cnc3cc(C(=O)N4CC(C)CC(C)C4)ccc32)c1 (stereo not drawn)
IC50 [6]: 0.271 µM

Compound: Cc1cccc(-n2cnc3cc(C(=O)N4CCC(C(F)(F)F)CC4)ccc32)c1
IC50 [6]: 1.52 µM

Compound: Cc1cccc(-n2cnc3cc(C(=O)N4CCCC4)ccc32)c1
IC50 [6]: 0.383 µM

Compound: Cc1cccc(-n2cnc3cc(C(=O)N4CCCC(c5ccccc5)C4)ccc32)c1 (stereo not drawn)
IC50 [6]: 0.429 µM

Compound: Cc1cccc(-n2cnc3cc(C(=O)NC4CCCC4)ccc32)c1
IC50 [6]: 0.961 µM

Compound: CCCCNC(=O)c1ccc2c(c1)ncn2-c1cccc(C)c1
IC50 [6]: 1.36 µM

Compound: Cc1cccc(-n2cnc3cc(C(=O)N4CCN(C)CC4)ccc32)c1
IC50 [6]: 2.71 µM

Compound: Cc1cccc(-n2cnc3cc(C(=O)N4CCOCC4)ccc32)c1
IC50 [6]: 3.04 µM

Compound: CC(C)(C)c1cccc(-n2cnc3cc(C(=O)N4CCCCC4)ccc32)c1
IC50 [6]: 0.171 µM

Now from value to molecule, other results behind:

permeability [1]: 599 ×10⁻⁶ cm/s | Kinetic_solubility [2]: > 45 µM | IC50 [6]: 0.054 µM
Compound: Cc1cc(-c2nnc3n2CCCCC3)c(C)n1-c1ccccc1
Activity (A549 [4]): 106% | Activity (LNCaP [7]): 73%

IC50 [6]: 0.027 µM
Compound: COc1ccccc1-n1cnc2cc(C(=O)N3CCCCC3)ccc21

IC50 [6]: 0.038 µM
Compound: Cc1cc(-c2nnc3n2CCCCC3)c(C)n1-c1ccc(Cl)cc1

IC50 [6]: 0.048 µM
Compound: Cc1cc(-c2nnc3n2CCCCC3)c(C)n1-c1ccc(Br)cc1

IC50 [6]: 0.068 µM
Compound: Cc1cc(-c2nnc3n2CCCCC3)c(C)n1-c1ccc(C(F)(F)F)cc1

IC50 [6]: 0.096 µM
Compound: Cc1cc(-c2nnc3n2CCCCC3)c(C)n1-c1ccc(C#N)cc1

IC50 [6]: 0.086 µM
Compound: COc1ccc(-n2c(C)cc(-c3nnc4n3CCCCC4)c2C)cc1

IC50 [6]: 0.038 µM
Compound: CCOC(=O)c1ccc(-n2c(C)cc(-c3nnc4n3CCCCC4)c2C)cc1

IC50 [6]: 0.022 µM
Compound: Cc1cccc(-n2cnc3cc(C(=O)N4CCCC(C)C4)ccc32)c1 (stereo not drawn)

IC50 [6]: 0.048 µM
Compound: Cc1cccc(-n2cnc3cc(C(=O)N4CCCC(C(C)C)C4)ccc32)c1 (stereo not drawn)

IC50 [6]: 0.068 µM
Compound: Cc1cccc(-n2cnc3cc(C(=O)N4CCCC(C(F)(F)F)C4)ccc32)c1 (stereo not drawn)

IC50 [6]: 0.022 µM
Compound: O=C(c1ccc2c(c1)ncn2-c1ccccc1)N1CCCCC1

IC50 [8]: Not Active | IC50 [9]: Not Active | IC50 [10]: Not Active | permeability [1]: 895 ×10⁻⁶ cm/s | Kinetic_solubility [2]: > 50 µM | IC50 [11]: Not Active | IC50 [12]: 1.92 µM | IC50 [6]: 0.012 µM | t1/2 (Liver microsome): 6.4 min
Compound: O=C(c1ccc2c(c1)ncn2-c1cccc(Cl)c1)N1CCCCC1
AC50 (LNCaP [3]): 0.222 µM | Activity (A549 [4]): 170% | Activity (LNCaP [7]): 85%

IC50 [6]: 0.019 µM
Compound: COc1cccc(-n2cnc3cc(C(=O)N4CCCCC4)ccc32)c1

IC50 [8]: Not Active | IC50 [9]: Not Active | IC50 [10]: Not Active | permeability [1]: 1350 ×10⁻⁶ cm/s | Kinetic_solubility [2]: > 55 µM | IC50 [11]: Not Active | IC50 [12]: 6.81 µM | IC50 [6]: 0.048 µM | t1/2 (Liver microsome): 4.4 min
Compound: O=C(c1ccc2c(c1)ncn2-c1cccc(C(F)(F)F)c1)N1CCCCC1
AC50 (LNCaP [3]): 2.8 µM | Activity (A549 [4]): 173% | AC50 (A549 [5]): 2.64 µM | Activity (LNCaP [7]): 70%

IC50 [6]: 0.068 µM
Compound: CC(C)c1cccc(-n2cnc3cc(C(=O)N4CCCCC4)ccc32)c1

IC50 [6]: 0.019 µM
Compound: Cc1ccc(-n2cnc3cc(C(=O)N4CCCCC4)ccc32)cc1

IC50 [6]: 0.022 µM
Compound: O=C(c1ccc2c(c1)ncn2-c1ccc(Cl)cc1)N1CCCCC1

IC50 [8]: Not Active | IC50 [9]: Not Active | IC50 [10]: Not Active | permeability [1]: 624 ×10⁻⁶ cm/s | Kinetic_solubility [2]: > 50 µM | IC50 [11]: Not Active | IC50 [12]: 1.36 µM | IC50 [6]: 0.019 µM | t1/2 (Liver microsome): 23 min
Compound: COc1ccc(-n2cnc3cc(C(=O)N4CCCCC4)ccc32)cc1
AC50 (LNCaP [3]): 0.884 µM | Activity (A549 [4]): 174% | AC50 (A549 [5]): 0.662 µM | Activity (LNCaP [7]): 69%

IC50 [6]: 0.086 µM
Compound: O=C(c1ccc2c(c1)ncn2-c1ccc(C(F)(F)F)cc1)N1CCCCC1

IC50 [6]: 0.054 µM
Compound: CC(C)(C)c1ccc(-n2cnc3cc(C(=O)N4CCCCC4)ccc32)cc1

IC50 [6]: 0.034 µM
Compound: CC(C)(C)n1cnc2cc(C(=O)N3CCCCC3)ccc21

IC50 [6]: 0.068 µM
Compound: CCCCn1cnc2cc(C(=O)N3CCCCC3)ccc21
